Results from patent US20230107642A1 (Erasca, Inc., priority 2020, published 2023).

Target: T1, K-Ras G12C (Homo sapiens, UniProt P01116, G12C)
T1 construct: This protein contained 188 amino acids in total, including an N-terminal 6-Histidine tag; made in house; host or cells: E. coli BL21
Experiment: CAF assay (% CAF; method in Example 7, not in this part)
Assay type: binding
Details: for % CAF 10 uM @ 60 min: Table 2a

Row | % CAF @ 10 uM, 1h (10 uM, 1 h, Table 3) [%] | % CAF @ 10 uM, 1h (10 uM compound, 1 h incubation) [%] | SMILES | further results
1 |  | 55.1 | C=CC(=O)N1C[C@H](C)N(c2nc(=O)n3c4c(c(-c5ccc(F)cc5)c(Cl)cc24)SC[C@@H]3CN2CCN(CC(F)F)CC2)C[C@H]1C [Example 515, (S)-7-((2S,5R)-4-acryloyl-2,5-dimethylpiperazin-1-yl)-9-chloro-3-((4-(2,2-difluoroethyl)piperazin-1-yl)methyl)-10-(4-fluorophenyl)-2H-[1,4]thiazino[2,3,4-ij]quinazolin-5(3H)-one] | 
2 |  | 93 | C=CC(=O)N1[C@H](C)CN(c2nc(=O)n3c4c(c(-c5ccc(F)cc5F)c(Cl)cc24)SC[C@H](OC)C3)C[C@@H]1C [Example 526, (3R)-8-((3S,5R)-4-acryloyl-3,5-dimethylpiperazin-1-yl)-10-chloro-11-(2,4-difluorophenyl)-3-methoxy-3,4-dihydro-2H,6H-[1,4]thiazepino[2,3,4-ij]quinazolin-6-one] | 
3 |  | 82.2 | C=CC(=O)N1C[C@H](C)N(c2nc(=O)n3c4c(c(-c5cc(F)c(F)cc5F)c(Cl)cc24)SC[C@@H]3CN2CCn3c(nnc3C(F)(F)F)C2)C[C@H]1C [Example 459, (3S)-7-((2S,5R)-4-acryloyl-2,5-dimethylpiperazin-1-yl)-9-chloro-3-((3-(trifluoromethyl)-5,6-dihydro-[1,2,4]triazolo[4,3-a]pyrazin-7(8H)-yl)methyl)-10-(2,4,5-trifluorophenyl)-2H-[1,4]thiazino[2,3,4-ij]quinazolin-5(3H)-one] | 
4 |  | 21.2 | C=CC(=O)N1C[C@H](C)N(c2nc(=O)n3c4c(c(-c5cc(Cl)c(F)cc5F)c(C(F)(F)F)cc24)SC[C@@H]3CN2CCN(CC(F)F)CC2)C[C@H]1C (atropisomer, axis not shown) [Example 557, (3S,10S)-7-((2S,5R)-4-acryloyl-2,5-dimethylpiperazin-1-yl)-10-(5-chloro-2,4-difluorophenyl)-3-((4-(2,2-difluoroethyl)piperazin-1-yl)methyl)-9-(trifluoromethyl)-2H-[1,4]thiazino[2,3,4-ij]quinazolin-5(3H)-one] | 
5 |  | 65.3 | C=CC(=O)N1C[C@H](C)N(c2nc(=O)n3c4c(c(-c5cc(Cl)c(F)cc5F)c(Cl)cc24)SC[C@@H]3COC)C[C@H]1C [Example 496, (3S)-7-((2S,5R)-4-acryloyl-2,5-dimethylpiperazin-1-yl)-9-chloro-10-(5-chloro-2,4-difluorophenyl)-3-(methoxymethyl)-2H-[1,4]thiazino[2,3,4-ij]quinazolin-5(3H)-one] | 
6 |  | 61 | C=CC(=O)N1CCN(c2nc(=O)n3c4c(c(-c5ccc(F)cc5F)c(C(F)(F)F)cc24)SC[C@@H](N(C)CC(F)(F)F)C3)[C@@H](C)C1 [Example 454, (3S)-8-((S)-4-acryloyl-2-methylpiperazin-1-yl)-11-(2,4-difluorophenyl)-3-(methyl(2,2,2-trifluoroethyl)amino)-10-(trifluoromethyl)-3,4-dihydro-2H,6H-[1,4]thiazepino[2,3,4-ij]quinazolin-6-one] | 
7 |  | 55.6 | C=CC(=O)N1CCN(c2nc(=O)n3c4c(c(-c5cc(Cl)c(F)cc5F)c(Cl)cc24)SC[C@@H]3CN2CCN(C3CC3)CC2)[C@@H](C)C1 [Example 458, (3S)-7-((S)-4-acryloyl-2-methylpiperazin-1-yl)-9-chloro-10-(5-chloro-2,4-difluorophenyl)-3-((4-cyclopropylpiperazin-1-yl)methyl)-2H-[1,4]thiazino[2,3,4-ij]quinazolin-5(3H)-one] | 
8 |  | 15.7 | C=CC(=O)N1CCN(c2nc(=O)n3c4c(c(-c5cc(Cl)c(F)cc5F)c(Cl)cc24)SC[C@@H]3CN2CCC3(CC2)COC3)[C@@H](C)C1 (atropisomer, axis not shown) [Example 483, (3S,10R)-3-((2-oxa-7-azaspiro[3.5]nonan-7-yl)methyl)-7-((S)-4-acryloyl-2-methylpiperazin-1-yl)-9-chloro-10-(5-chloro-2,4-difluorophenyl)-2,3-dihydro-5H-[1,4]thiazino[2,3,4-ij]quinazolin-5-one] | 

The next lines start with the compound.

Row | SMILES | % CAF @ 10 uM, 1h (10 uM, 1 h, Table 3) [%] | % CAF @ 10 uM, 1h (10 uM compound, 1 h incubation) [%] | further results
9 | C=CC(=O)N1CCN(c2nc(=O)n3c4c(c(-c5ccc(F)cc5F)c(CC)cc24)SCC3)[C@@H](C)C1 [Example 114, 7-((S)-4-acryloyl-2-methylpiperazin-1-yl)-10-(2,4-difluorophenyl)-9-ethyl-2,3-dihydro-5H-[1,4]thiazino[2,3,4-ij]quinazolin-5-one] | 92.8 |  | 
10 | C=CC(=O)N1CCN(c2nc(=O)n3c4c(c(-c5cccc6ccccc56)c(Cl)cc24)SCC3)[C@@H](C)C1 [Example 155, (S)-7-((S)-4-acryloyl-2-methylpiperazin-1-yl)-9-chloro-10-(naphthalen-1-yl)-2,3-dihydro-5H-[1,4]thiazino[2,3,4-ij]quinazolin-5-one] | 92.2 |  | 
11 | C=CC(=O)N1CCN(c2nc(=O)n3c4c(c(-c5c(F)cc(F)cc5F)c(Cl)cc24)SC[C@@H]3CN2CCN(CC)CC2)[C@@H](C)C1 [Example 351, (S)-7-((S)-4-acryloyl-2-methylpiperazin-1-yl)-9-chloro-3-((4-ethylpiperazin-1-yl)methyl)-10-(2,4,6-trifluorophenyl)-2H-[1,4]thiazino[2,3,4-ij]quinazolin-5(3H)-one] |  |  | % CAF @ 10 μM, 1 h (10 μM, 1 h, Table 4): 74%
12 | C=CC(=O)N1CCN(c2nc(=O)n3c4c(c(-c5ccc(F)cc5F)c(C(F)(F)F)cc24)SCC3)C2CS(=O)(=O)CC21 (stereo not shown) [Example 100, 7-(4-acryloyl-6,6-dioxidohexahydrothieno[3,4-b]pyrazin-1(2H)-yl)-10-(2,4-difluorophenyl)-9-(trifluoromethyl)-2,3-dihydro-5H-[1,4]thiazino[2,3,4-ij]quinazolin-5-one] | 94 |  | 
13 | C=CC(=O)N1CCN(c2nc(=O)n3c4c(c(-c5ccccc5F)c(Cl)cc24)SCC3)[C@@H](C)C1 (atropisomer, axis not shown) [Example 123, (R)-7-((S)-4-acryloyl-2-methylpiperazin-1-yl)-9-chloro-10-(2-fluorophenyl)-2,3-dihydro-5H-[1,4]thiazino[2,3,4-ij]quinazolin-5-one] | 91.3 |  | 
14 | C[C@H]1CN(C(=O)/C=C/C(F)F)CCN1c1nc(=O)n2c3c(c(-c4cc(F)cc(Cl)c4)c(Cl)cc13)SCC2 [Example 63, (S,E)-9-chloro-10-(3-chloro-5-fluorophenyl)-7-(4-(4,4-difluorobut-2-enoyl)-2-methylpiperazin-1-yl)-2,3-dihydro-5H-[1,4]thiazino[2,3,4-ij]quinazolin-5-one] | 67 |  | % CAF 10 uM @ 60 min (10 uM): 75%
15 | C=CC(=O)N1C2CC(=O)CC1CN(c1nc(=O)n3c4c(c(-c5ccc(F)cc5F)c(C(F)(F)F)cc14)SCC3)C2 [Example 101, 7-(9-acryloyl-7-oxo-3,9-diazabicyclo[3.3.1]nonan-3-yl)-10-(2,4-difluorophenyl)-9-(trifluoromethyl)-2,3-dihydro-5H-[1,4]thiazino[2,3,4-ij]quinazolin-5-one] | 96.5 |  | 
16 | C=CC(=O)N1CCN(c2nc(=O)n3c4c(c(-c5ccc(F)cc5F)c(C(F)(F)F)cc24)S(=O)(=O)C[C@@H]3COC)[C@@H](C)C1 [Example 436, (3S)-7-((S)-4-acryloyl-2-methylpiperazin-1-yl)-10-(2,4-difluorophenyl)-3-(methoxymethyl)-9-(trifluoromethyl)-2H-[1,4]thiazino[2,3,4-ij]quinazolin-5(3H)-one 1,1-dioxide] |  | 72.5 | 
17 | C=CC(=O)N1CCN(c2nc(=O)n3c4c(c(-c5cc(Cl)ccc5Cl)c(Cl)cc24)SCC3)[C@@H](C)C1 [Example 171, 7-((S)-4-acryloyl-2-methylpiperazin-1-yl)-9-chloro-10-(2,5-dichlorophenyl)-2,3-dihydro-5H-[1,4]thiazino[2,3,4-ij]quinazolin-5-one] | 48.9 |  | 
18 | C[C@H]1CN(C(=O)/C=C/C(F)F)CCN1c1nc(=O)n2c3c(c(-c4cc(F)cc(F)c4)c(Cl)cc13)SCC2 [Example 67, (S,E)-9-chloro-7-(4-(4,4-difluorobut-2-enoyl)-2-methylpiperazin-1-yl)-10-(3,5-difluorophenyl)-2,3-dihydro-5H-[1,4]thiazino[2,3,4-ij]quinazolin-5-one] | 91 |  | % CAF 10 uM @ 60 min (10 uM): 87%
19 | O=C1CC2CN(c3nc(=O)n4c5c(c(-c6ccc(F)cc6F)c(C(F)(F)F)cc35)SCC4)CC(C1)N2C(=O)/C=C/C(F)(F)F [Example 440, (E)-10-(2,4-difluorophenyl)-7-(7-oxo-9-(4,4,4-trifluorobut-2-enoyl)-3,9-diazabicyclo[3.3.1]nonan-3-yl)-9-(trifluoromethyl)-2,3-dihydro-5H-[1,4]thiazino[2,3,4-ij]quinazolin-5-one] |  | 96 | 
20 | C=CC(=O)N1CCN(c2nc(=O)n3c4c(c(-c5cc(Cl)c(F)cc5F)c(Cl)cc24)SCC3)[C@@H](C)C1 [Example 82, 7-((S)-4-acryloyl-2-methylpiperazin-1-yl)-9-chloro-10-(5-chloro-2,4-difluorophenyl)-2,3-dihydro-5H-[1,4]thiazino[2,3,4-ij]quinazolin-5-one] | 85.8 |  | 
21 | C=CC(=O)N1CCN(c2nc(=O)n3c4c(c(-c5ccc(F)cc5F)c(Cl)cc24)SC(C)(C)C3)[C@@H](C)C1 [Example 75, 7-((S)-4-acryloyl-2-methylpiperazin-1-yl)-9-chloro-10-(2,4-difluorophenyl)-2,2-dimethyl-2,3-dihydro-5H-[1,4]thiazino[2,3,4-ij]quinazolin-5-one] | 86.8 |  | 
22 | C=CC(=O)N1CCN(c2nc(=O)n3c4c(c(-c5ccc(F)cc5F)c(Cl)cc24)SCC3)C[C@H]1CS(C)(=O)=O [Example 187, 7-((S)-4-acryloyl-3-((methylsulfonyl)methyl)piperazin-1-yl)-9-chloro-10-(2,4-difluorophenyl)-2,3-dihydro-5H-[1,4]thiazino[2,3,4-ij]quinazolin-5-one] | 83.7 |  | 
23 | C=CC(=O)N1CCN(c2nc(=O)n3c4c(c(-c5c(F)cc(F)cc5F)c(Cl)cc24)SC[C@H]3CCCN2C[C@@H]3C[C@H]2CO3)[C@@H](C)C1 [Example 110, (R)-3-(3-((1S,4S)-2-oxa-5-azabicyclo[2.2.1]heptan-5-yl)propyl)-7-((S)-4-acryloyl-2-methylpiperazin-1-yl)-9-chloro-10-(2,4,6-trifluorophenyl)-2,3-dihydro-5H-[1,4]thiazino[2,3,4-ij]quinazolin-5-one] | 96.6 |  | 
